Experimental data: patent US5356887A, “Pharmaceutical compositions containing insoluble calcium salts of amino-hydroxybutylidene bisphoshonic acids” (Merck & Co., Inc., priority 1993, dated 1994)
Structures can show the parent of a compound that is named as a salt. Where two headings read alike, the source gives them in different places.

Key:
immobilized femur [1] = conditions: days -4 and -3, 10 days after surgery, n = 5
Procedure: On day 0 all rats underwent surgery whereby the sciatic nerve of the right hind limb was severed. Ten days following immobilization surgery, the rats were sacrificed and hind limbs removed. The femora were defleshed, maximum femoral length of both femora measured and then placed in a muffle furnace at 700° C. for 24 hours.
(§1) mg Diff = difference in ash weight between the intact femur and the
(§2) se = standard error of the mean
(§3) % Bone Loss = ash weight difference between the intact femur and the
(§4) immobilized femur divided by the ash weight of the intact femur

rat paw = test: Local Irritation Study/Rat Paw Licking Response Test; conditions: suspension vs solution of the (ABP)Na salt
immobilized femur [2] = conditions: days -2 and -1, 10 days after surgery, n = 5
Procedure: Immobilization was produced by unilateral hind limb sciatic neurectomy. Ten days after surgery the rats were sacrificed, hind limbs removed, and the femora ashed at 700° C. for 24 hours. Ash weight was determined and the difference between the ash weight of the intact limb and immobilized limb calculated and expressed as the mg difference. Per cent difference was calculated as the % difference in ash weight between the intact and immobilized limb.
as §1, §2, §3, §4

[3] = in vivo
[4] = 2 × 0.1 mg P/kg s.c., monocalcium salt
[5] = 2 × 1.0 mg P/kg s.c., monocalcium salt
[6] = 0.0001 mg P/kg s.c., monocalcium salt
[7] = 0.001 mg P/kg s.c., monocalcium salt
[8] = 0.01 mg P/kg s.c., monocalcium salt
[9] = 0.1 mg P/kg s.c., monocalcium salt
[10] = 2 × 0.1 mg P/kg s.c., monosodium salt
[11] = 0.0001 mg P/kg s.c., monosodium salt
[12] = 0.001 mg P/kg s.c., monosodium salt
[13] = 0.01 mg P/kg s.c., monosodium salt
[14] = 0.1 mg P/kg s.c., monosodium salt

In the case of NCCCC(O)(P(=O)(O)O)P(=O)(O)O [(ABP)2 Ca, di[(4-amino-1-hydroxybutylidene)-1,1-bisphosphonic acid] monocalcium salt], the “% Bone Loss” value (immobilized femur [1]; [4]) is reported as 1.93%, the “mg Diff (difference in ash weight between the intact femur and the immobilized femur)” value (immobilized femur [1]; [4]) is reported as 6.50 mg and the “% Bone Loss” value (immobilized femur [1]; [5]) is reported as 2.09%. For the same molecule, the “mg Diff (difference in ash weight between the intact femur and the immobilized femur)” value (immobilized femur [1]; [5]) was 7.38 mg, the “Paw licking responses and tolerability, in words” value (rat paw) was “induced a lower number of responses and were better tolerated than the solution of the (ABP)Na salt” and the “% Bone Loss” value (immobilized femur [2]; [6]) was 8.93%. For the same molecule, the “mg Diff (difference in ash weight between the intact femur and the immobilized femur)” value (immobilized femur [2]; [6]) was 29.64 mg, the “% Bone Loss” value (immobilized femur [2]; [7]) was 6.58% and the “mg Diff (difference in ash weight between the intact femur and the immobilized femur)” value (immobilized femur [2]; [7]) was 22.00 mg. The “% Bone Loss” value (immobilized femur [2]; [8]) was 3.64%, the “mg Diff (difference in ash weight between the intact femur and the immobilized femur)” value (immobilized femur [2]; [8]) was 12.62 mg and the “% Bone Loss” value (immobilized femur [2]; [9]) was 4.14%. For the same molecule, the “mg Diff (difference in ash weight between the intact femur and the immobilized femur)” value (immobilized femur [2]; [9]) was 11.32 mg.

For NCCCC(O)(P(=O)(O)O)P(=O)(O)O [(ABP)3 Ca4, tri[(4-amino-1-hydroxybutylidene)-1,1-bisphosphonic acid] tetracalcium salt], the “% Bone Loss” value (immobilized femur [1]; 2 × 0.1 mg P/kg s.c.) was 2.48%, the “mg Diff (difference in ash weight between the intact femur and the immobilized femur)” value (immobilized femur [1]; 2 × 0.1 mg P/kg s.c.) was 7.68 mg and the “% Bone Loss” value (immobilized femur [1]; 2 × 1.0 mg P/kg s.c.) was 1.22%. The “mg Diff (difference in ash weight between the intact femur and the immobilized femur)” value (immobilized femur [1]; 2 × 1.0 mg P/kg s.c.) was 3.94 mg and the “Paw licking responses and tolerability, in words” value (rat paw) was “induced a lower number of responses and were better tolerated than the solution of the (ABP)Na salt”.

For NCCCC(O)(P(=O)(O)O)P(=O)(O)O [(ABP)Ca, [(4-amino-1-hydroxybutylidene)-1,1-bisphosphonic acid] monocalcium salt], the “Systemic release of ABP” value [3] was “slow systemic release”, the “Level of the drug in the bloodstream” value ([3]; sc) was “never very high” and the “% Bone Loss” value (immobilized femur [2]; [6]) was 9.34%. For the same molecule, the “mg Diff (difference in ash weight between the intact femur and the immobilized femur)” value (immobilized femur [2]; [6]) was 28.70 mg, the “% Bone Loss” value (immobilized femur [2]; [7]) was 7.69% and the “mg Diff (difference in ash weight between the intact femur and the immobilized femur)” value (immobilized femur [2]; [7]) was 25.98 mg. The “% Bone Loss” value (immobilized femur [2]; [8]) was 5.01%, the “mg Diff (difference in ash weight between the intact femur and the immobilized femur)” value (immobilized femur [2]; [8]) was 16.72 mg and the “% Bone Loss” value (immobilized femur [2]; [9]) was 4.12%. For the same molecule, the “mg Diff (difference in ash weight between the intact femur and the immobilized femur)” value (immobilized femur [2]; [9]) was 13.24 mg.

With NCCCC(O)(P(=O)(O)O)P(=O)(O)O [(ABP)Na, (4-amino-1-hydroxybutylidene)-1,1-bisphosphonic acid monosodium salt, reference compound] the “% Bone Loss” value (immobilized femur [1]; [10]) was 4.68%, the “mg Diff (difference in ash weight between the intact femur and the immobilized femur)” value (immobilized femur [1]; [10]) was 14.62 mg and the “Level of the drug in the bloodstream” value ([3]; iv) was “high level”. The “% Bone Loss” value (immobilized femur [2]; [11]) was 9.93%, the “mg Diff (difference in ash weight between the intact femur and the immobilized femur)” value (immobilized femur [2]; [11]) was 31.14 mg and the “% Bone Loss” value (immobilized femur [2]; [12]) was 5.95%. The “mg Diff (difference in ash weight between the intact femur and the immobilized femur)” value (immobilized femur [2]; [12]) was 21.32 mg, the “% Bone Loss” value (immobilized femur [2]; [13]) was 4.90% and the “mg Diff (difference in ash weight between the intact femur and the immobilized femur)” value (immobilized femur [2]; [13]) was 18.72 mg. For the same molecule, the “% Bone Loss” value (immobilized femur [2]; [14]) was 4.15% and the “mg Diff (difference in ash weight between the intact femur and the immobilized femur)” value (immobilized femur [2]; [14]) was 14.10 mg.
